In ChEMBL document CHEMBL5308504, “Tm Shift (DSF) assay results for EUbOPEN Chemogenomics Library” (2023):
Where “and” joins values, the source holds several entries; their conditions need not be identical. Equal values may be shown once.

Tests used:
Peregrin (Homo sapiens) = biological target: T1, Peregrin (Homo sapiens) (UniProt P55201); conditions: Compound concentration 20.0 uM, Protein concentration 2.0 uM, Result type QC Liability
T1 sequence (whole entry): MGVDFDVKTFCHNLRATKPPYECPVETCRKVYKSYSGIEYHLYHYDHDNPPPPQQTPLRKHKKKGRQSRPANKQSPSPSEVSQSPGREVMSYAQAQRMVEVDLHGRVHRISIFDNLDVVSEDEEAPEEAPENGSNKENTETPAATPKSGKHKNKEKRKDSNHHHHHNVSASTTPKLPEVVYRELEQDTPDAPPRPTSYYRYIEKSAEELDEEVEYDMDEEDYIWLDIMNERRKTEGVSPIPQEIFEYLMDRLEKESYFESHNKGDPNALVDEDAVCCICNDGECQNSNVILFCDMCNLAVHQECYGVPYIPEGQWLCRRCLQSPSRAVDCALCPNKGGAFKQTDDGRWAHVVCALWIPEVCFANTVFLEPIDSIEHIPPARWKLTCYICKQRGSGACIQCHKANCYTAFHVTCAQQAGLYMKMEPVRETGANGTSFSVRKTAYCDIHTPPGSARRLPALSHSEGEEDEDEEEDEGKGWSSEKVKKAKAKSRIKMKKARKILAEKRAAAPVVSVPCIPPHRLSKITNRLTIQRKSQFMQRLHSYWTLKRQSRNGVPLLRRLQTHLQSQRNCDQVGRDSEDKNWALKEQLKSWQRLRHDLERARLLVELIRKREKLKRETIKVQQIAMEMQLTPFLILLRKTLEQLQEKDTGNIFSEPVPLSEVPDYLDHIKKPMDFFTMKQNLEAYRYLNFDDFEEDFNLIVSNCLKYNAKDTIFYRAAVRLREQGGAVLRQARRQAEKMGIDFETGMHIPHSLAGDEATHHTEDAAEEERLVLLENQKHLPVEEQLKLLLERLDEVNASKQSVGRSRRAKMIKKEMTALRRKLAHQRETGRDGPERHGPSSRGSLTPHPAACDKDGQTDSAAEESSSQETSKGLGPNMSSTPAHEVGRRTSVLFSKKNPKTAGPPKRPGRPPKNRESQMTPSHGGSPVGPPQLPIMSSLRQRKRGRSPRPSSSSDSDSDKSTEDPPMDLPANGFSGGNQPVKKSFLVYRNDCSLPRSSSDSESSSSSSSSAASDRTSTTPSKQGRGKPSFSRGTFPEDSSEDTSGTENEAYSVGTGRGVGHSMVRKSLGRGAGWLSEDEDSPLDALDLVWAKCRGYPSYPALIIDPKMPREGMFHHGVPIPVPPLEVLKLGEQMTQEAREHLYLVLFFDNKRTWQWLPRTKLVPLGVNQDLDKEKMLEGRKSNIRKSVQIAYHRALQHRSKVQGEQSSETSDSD

[1] = biological target: Fibroblast growth factor receptor 3 (Homo sapiens) (UniProt P22607); conditions: Compound concentration 20.0 uM, Protein concentration 2.0 uM, Result type QC Liability
Chain of Fibroblast growth factor receptor 3 (Homo sapiens) (P22607 23-806 limits assumed): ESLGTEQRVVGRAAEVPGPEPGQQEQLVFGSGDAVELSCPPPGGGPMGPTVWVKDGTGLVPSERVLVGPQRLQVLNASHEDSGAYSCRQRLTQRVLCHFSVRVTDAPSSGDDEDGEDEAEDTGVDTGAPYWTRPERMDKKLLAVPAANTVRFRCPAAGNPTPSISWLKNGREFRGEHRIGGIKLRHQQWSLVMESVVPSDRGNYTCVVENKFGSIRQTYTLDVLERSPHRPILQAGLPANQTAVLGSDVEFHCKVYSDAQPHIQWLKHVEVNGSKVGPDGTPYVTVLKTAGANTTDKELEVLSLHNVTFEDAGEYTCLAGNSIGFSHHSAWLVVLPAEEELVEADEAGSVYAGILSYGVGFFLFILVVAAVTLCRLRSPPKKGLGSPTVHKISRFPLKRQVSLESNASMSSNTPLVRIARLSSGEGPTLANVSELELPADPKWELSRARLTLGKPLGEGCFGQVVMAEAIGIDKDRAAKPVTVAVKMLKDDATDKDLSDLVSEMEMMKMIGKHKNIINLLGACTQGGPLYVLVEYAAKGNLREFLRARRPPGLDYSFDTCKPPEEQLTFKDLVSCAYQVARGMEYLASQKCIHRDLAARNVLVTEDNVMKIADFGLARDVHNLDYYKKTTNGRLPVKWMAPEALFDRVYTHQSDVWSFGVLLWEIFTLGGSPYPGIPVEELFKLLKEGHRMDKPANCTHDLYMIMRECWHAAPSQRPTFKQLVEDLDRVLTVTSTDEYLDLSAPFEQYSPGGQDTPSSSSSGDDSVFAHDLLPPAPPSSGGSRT
Description: Thermal Shift Assay. Domain: start/stop: P449-E759

SMILES	ΔTm (Peregrin (Homo sapiens))	ΔTm [1]
CCNC(=O)c1ccc2c(c1)NC(=O)/C2=C(\Nc1ccc(CN(C)C)cc1)c1ccccc1	-2.4 °C and -1.23 °C	1.15 °C and 1.47 °C
CC[C@H](CC(=O)O)n1c(=O)c2ncccc2n(Cc2cn(C)c3cc(C)cc(C)c23)c1=O	-2.28 °C and -0.95 °C	0.98 °C and 0.62 °C
COc1cc2c(NC3CCN(C(C)C)CC3)nc(C3CCCCC3)nc2cc1OCCCN1CCCC1	-0.55 °C	0.95 °C
COc1cc(Nc2cnc(C#N)c(O[C@H](C)CN(C)C)n2)ncc1-c1cnn(C)c1	-0.27 °C	1.26 °C
O=C1Nc2ccc(I)cc2/C1=C/c1cc(Br)c(O)c(Br)c1	-0.58 °C	0.51 °C
CCc1cnn2c(NCc3ccc[n+]([O-])c3)cc(N3CCCCC3CCO)nc12 (stereo not given)	-1.7 °C	1.49 °C
CSc1nc2c(c(=O)n(C)c(=O)n2C)n1C	-2.2 °C	0.45 °C
CN(C)[C@H]1CC[C@H](Nc2ncc3ncnc(Nc4ccc(F)c(Cl)c4)c3n2)CC1	1.59 °C	0.8 °C
CN1CCN(c2ccc(-n3cc(-c4ccncc4OCC4CCNCC4)cn3)cc2)CC1	-0.97 °C	1.33 °C
COc1cc(Cl)c(C(=O)N[C@@H](CN[C@H]2CC[C@@H](N)CC2)Cc2ccc(C#N)cc2)cc1-c1ccc(CN[C@H](C)c2ccc(C)cc2)o1	-2.44 °C	1.14 °C
Cn1nccc1-c1ccc(Sc2cccc(C3(C(N)=O)CCOCC3)c2)cc1	-2.35 °C	0.47 °C
COc1cc(C(=O)NCCOCCOCCOCCC(=O)Nc2cccc3c2C(=O)N(C2CCC(=O)NC2=O)C3=O)ccc1Nc1ncc(C(F)(F)F)c(Oc2cccc3c2C(=O)CC3)n1 (stereo not given)	-2.32 °C	-3.01 °C
COCc1c(-c2cc3cc(C)cc(OC)c3s2)c2c(N)ncnn2c1CN[C@@H]1CCNC1=O	-2.51 °C	6.99 °C
CC(C)S(=O)(=O)c1ccccc1Nc1nc(N[C@@H]2CCCN(CCCCCCCNC(=O)COc3cccc4c3C(=O)N(C3CCC(=O)N(C)C3=O)C4=O)C2)ncc1Cl (stereo not given in full)	-2.55 °C	8.15 °C
COc1cc(N(C)c2ccnc3ccc(C(F)(F)F)cc23)cc(OC)c1OC	-1.93 °C	0.76 °C
CC(=O)c1ccc2c(c1)/C(=C(/Nc1cccc(C#N)c1)c1ccc3c(c1)OCCO3)C(=O)N2	-0.95 °C	4 °C
Cc1nnc2n1-c1sc3c(c1C(c1ccccc1Cl)=NC2)CC(C(=O)N1CCOCC1)C3 (stereo not given)	-1.83 °C	0.52 °C

The next lines start with the values.

ΔTm (Peregrin (Homo sapiens))	ΔTm [1]	SMILES
-1.04 °C	0.39 °C	COC(=O)c1sccc1S(=O)(=O)Nc1ccc(Nc2ccccc2)cc1OC
-2.26 °C	1.12 °C	c1ccc2c(-c3coc4cc(-c5ccc(N6CCNCC6)cc5)cnc34)ccnc2c1
-1.18 °C	0.45 °C	O=c1cc(C2CCNCC2)n2nc3cccc(Cl)c3c2[nH]1
-2.96 °C	-3.83 °C	O=C(O)c1cc(F)c2nc(N3[C@@H]4CC[C@H]3C[C@@H](OCc3c(-c5ccccc5OC(F)(F)F)noc3C3CC3)C4)sc2c1
-1.55 °C	0.72 °C	Nc1ncnc2c1ccn2[C@@H]1O[C@H]([C@@H](O)c2ccccc2)[C@@H](O)[C@H]1O
-0.11 °C	0.38 °C	COc1cc2ncnc(N[C@H](C)c3ccccc3)c2cc1OC1CCN(S(C)(=O)=O)CC1
-1.64 °C	0.43 °C	CCS(=O)(=O)c1cc2cc(C[C@](O)(CC(C)(C)c3ccc(F)cc3C(N)=O)C(F)(F)F)[nH]c2cn1
-1.79 °C	3.13 °C	Nc1ncnc2c1c(I)cn2[C@@H]1O[C@H](CO)[C@@H](O)[C@H]1O
-3.02 °C	1.25 °C	Cc1nc2cccnc2n2c(-c3cc(C(C)(C)O)ncc3Cl)nnc12
-3.6 °C	0.83 °C	O=C(Nc1ccccc1C(=O)O)c1cc(S(=O)(=O)c2ccccc2)ccc1Cl
-1.58 °C	0.71 °C	CCC(=O)N[C@@H]1CC[C@H](C(=O)N(C)c2ccc(-c3nc4ccccc4o3)cc2)C1
-4.37 °C	0.31 °C	Cc1cc(OC2CCS(=O)(=O)CC2)cc(C)c1-c1cccc(COc2ccc(CCC(=O)O)c(F)c2)c1
-3.33 °C	0.41 °C	CCOCCn1cc(C(=O)Nc2ccc(-n3nc(-c4cccnc4)cc3C(F)(F)F)cn2)ccc1=O
-0.69 °C	0.65 °C	CNC(=O)c1cc(C(=O)N[C@H]2[C@@H]3COC[C@@H]32)cc2c1O[C@H](CF)[C@H]2c1ccccc1
-0.88 °C	0.46 °C	O=C(Cc1ccccc1)Nc1nnc(N2C[C@H]3C[C@@H]2CN3c2cccnn2)s1
1.25 °C	2.85 °C	COc1cc2c(cc1CC=C(C)C)C(=O)C[C@@H](c1ccc(O)cc1)O2
-2.45 °C	0.62 °C	Cc1ccc(-c2cn3nc(C(=O)NC4(c5ccc(F)cc5)CN(C)C4)c(C(C)C)c3c(=O)[nH]2)cc1C
-2.21 °C	1.58 °C	O=C(NCCN1CCOCC1)c1ccc2nn(CCOc3ccc(Cl)cc3)cc2c1
